Assay type in all cases: cell-based
For assay [1], the target named is T1, LSF (Homo sapiens, UniProt Q12800).
T1 sequence (Q12800 1-502): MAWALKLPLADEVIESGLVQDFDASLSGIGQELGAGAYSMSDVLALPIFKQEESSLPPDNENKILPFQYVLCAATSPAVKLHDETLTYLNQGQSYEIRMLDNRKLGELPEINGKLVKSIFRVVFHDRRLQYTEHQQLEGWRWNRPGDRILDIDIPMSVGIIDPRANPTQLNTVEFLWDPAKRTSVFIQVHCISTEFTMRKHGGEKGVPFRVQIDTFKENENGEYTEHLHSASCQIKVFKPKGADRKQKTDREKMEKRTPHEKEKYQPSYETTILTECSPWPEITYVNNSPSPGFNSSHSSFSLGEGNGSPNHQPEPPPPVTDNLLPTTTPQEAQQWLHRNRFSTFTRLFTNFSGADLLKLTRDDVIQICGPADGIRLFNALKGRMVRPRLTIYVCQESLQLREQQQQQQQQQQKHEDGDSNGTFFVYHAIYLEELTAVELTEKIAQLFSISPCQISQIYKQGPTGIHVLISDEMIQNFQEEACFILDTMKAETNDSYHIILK
Description: LSF-dependent luciferase reporter assay in NIH 3T3 cells. Also noted: expressed in transfected cells; host or cells: NIH 3T3. As to conditions: for activity in the LSF luciferase reporter assay relative to comparator: in words; for IC50: NIH 3T3 cells, dual luciferase, ranges where few concentrations tested, read-out: IC50 (μM) LSF-dependent reporter assat NIH 3T3. How it is done: NIH 3T3 cells were transfected with the expression construct pEF1α-LSF, a LSF expression vector^6,20; the reporter construct pGL3B-WT4E1b, a firefly luciferase reporter vector driven by LSF^12; phRL-TK, a control renilla luciferase reporter vector; and pEFGP, essentially as previously described^12. Five hours after transfection, either vehicle (DMSO) or FQI compound was added, keeping DMSO at 0.5%. Cell extracts were harvested 36 hours post-transfection and firefly and renilla luciferase activities measured via a dual luciferase assay (Promega). Five μl of extract was mixed with 30 μl of luciferase assay reagent (Promega), and luminescence measured for 10 seconds using a 20/20n luminometer (Turner Biosystems). Subsequently, 30 μl of Stop & Glo reagent (Promega) was added, and luminescence also measured for 10 seconds. LSF transactivation activity is given as relative luciferase activity, the ratio of firefly to renilla activities.
NIH-3T3 cells were cultured at 37° C. in 5% CO2 in DMEM (Dulbecco's modification of Eagle's Medium; Corning) supplemented with 10% FCS (FCS; Atlanta Biologicals). Approximately 24 hours prior to transfection, 200,000 cells were plated in 35 mm dishes. After 24 hours, cells were ˜70% confluent, and were transfected for 5 hours with pEF1α-LSF, the reporter construct pGL3B-WT4E1b, phRLTK, and pEFGP (Grant, T. J. et al. Antiproliferative small-molecule inhibitors of transcription factor LSF reveal oncogene addiction to LSF in hepatocellular carcinoma. PNAS (2012), 109, 1-6). Vehicle (DMSO) or FQI-34 was then added, keeping the DMSO at 0.5%. Cell extracts were harvested 36 h post-transfection, and firefly and renilla luciferase activities were measured via a dual luciferase assay (Promega Dual-Luciferase Reporter Assay System). Relative luciferase activity represents firefly luciferase activity normalized to that of renilla luciferase in each extract. IC50 values were determined from plots of normalized luciferase activity vs. compound concentration (Prism GraphPad; non-linear regression 4-parameter curve fit with variable slope).

Assay [2] has as its system NIH/3T3 cells. Description: Cell proliferation assay (MTS), NIH/3T3. As to conditions: for GI50 / IC50: Mus musculus, NIH3T3; for IC50: Example 7, FIG. 8, read-out: growth inhibition of NIH/3T3 Cell Line IC50; for antiproliferative activity relative to comparator: against each cell line (NIH/3T3, HeLa, A549), in words. The protocol:
(§1) Cells were plated at 3×10^4 cells/mL, A549 and HeLa, and 1×10^4 cells/mL, NIH/3T3, in 96-well plates and incubated for 24 h to allow for cell adhesion. LSF-library compounds were dissolved in DMSO, serial diluted in appropriate medium and added to cells in triplicate (2 plates). DMSO was added to control wells at a final concentration of 1%. After 72 h incubation in the presence of compound, confluent cells were assayed for growth proliferation with CellTiter 96® AQueous One Solution Cell Proliferation Assay (MTS) (Promega) according to the manufacturer's protocol. Plates were read at 490 nm on a microplate reader, and IC50 values were determined as the percentage of compound-treated cell growth to control cell growth. HCC cells—one hour after plating HCC cells onto 96-well plates, compound or vehicle (DMSO) was added to the desired concentrations, keeping DMSO at 0.5%. At indicated time points, cell viability was assayed using the CellTiter 96® Non-Radioactive Cell Proliferation Assay (MTT) (Promega).
(§2) QGY-7703 and A549 cells were cultured at 37° C. in 5% CO2 in DMEM (Dulbecco's modification of Eagle's Medium; Corning) supplemented with 10% Fetal Bovine Serum (FBS; Invitrogen). NIH-3T3 cells were cultured at 37° C. in 5% CO2 in DMEM supplemented with 10% Fetal Calf Serum (FCS; Atlanta Biologicals). For cell viability assays, 1,500 cells were seeded in 96-well plates and treated with FQI-34 or vehicle (DMSO) at appropriate concentrations (DMSO at 1%) after 20 hours. After 72-hour incubation with compound or vehicle, cell growth was assessed via the Promega CellTiter 96® AQueous One Solution Cell Proliferation Assay, a colorimetric method to determine the number of viable cells. 20 μL of the CellTiter 96® AQueous One Solution Reagent was added directly into cultured wells and incubated for one hour, after which the absorbance at 490 nm was read with a 96-well plate reader (Opys MR Microplate Reader). The CellTiter 96® AQueous One Solution contains an MTS tetrazolium compound which is bioreduced by cells into a colored formazan product that is soluble in tissue culture medium. The quantity of formazan product as measured by absorbance is directly proportional to the number of living cells in culture. GI50 values were determined from plots of the percentage of compound-treated cell growth to vehicle cell growth vs. compound concentration (GraphPad Prism; non-linear regression 4-parameter curve fit with variable slope).

Assay [3] has as its system A549 cells. Description: Cell proliferation assay (MTS), A549. The following applies: Homo sapiens; for GI50: 72 h, MTS, read-out: GI50 (μM) A549; for IC50: Example 7, FIG. 8, read-out: growth inhibition of A549 Cell Line IC50. How it is done: as §1, §2
Assay [4] concerns HeLa cells. Description: Cell proliferation assay (MTS), HeLa. As to conditions: Homo sapiens; for IC50: HeLa, Example 7, FIG. 8, read-out: growth inhibition of HeLa Cell Line IC50; for GI50: 72 h, MTS. How it is done: as §1
Assay [5] has as its system QGY-7703 cells. Description: Cell viability GI50 (MTS), QGY-7703. As to conditions: Homo sapiens. The protocol:
as §2

Assay [6] relates to cancer cell lines. The assay is described as follows: Inhibition of growth of cancer cell lines in vitro (FIGS. 9 and 10). As to conditions: 0.2-33 μM. How it is done: FIG. 9A-9K show the results of inhibition of growth of cancer cell lines in vitro by FQI1 (Formula (IV)). The effect of inhibition of cell growth (represented as a fraction of 1) of increasing concentrations of FQI1 between 0.2-33 μM is shown.
The effect of inhibition of cell growth (represented as a fraction of 1) of increasing concentrations of FQI2 between 0.2-33 μM is shown.

For assay [7], the system named is QGY-7703 HCC cells. The assay is described as follows: HCC cell viability (MTT), QGY-7703. As to conditions: in words. How it is done:
as §1

The mark [8] stands for this setting: 72 h, MTS, read-out: GI50 (μM) NIH/3T3.
Where [9] appears, read: Table 3, read-out: GI50 (μM) NIH 3T3.

Where two headings read alike, the source gives them in different places.

Consider `CCOc1ccccc1[C@@H]1CC(=O)Nc2cc3c(cc21)OCO3` [(R)-FQI1], for which, in assay [1], the “activity in the LSF luciferase reporter assay relative to comparator” value is reported as “much less active than the racemate”. Besides, the GI50 was 45 ± 7 µM in assay [2] (setting [8]), 18 ± 3.2 µM in assay [3] and 8 ± 1 µM in assay [4]. Besides, the IC50 in assay [2] was determined as 45 ± 6.9 µM; in assay [3] it was 18 ± 3.2 µM; in assay [4] it was 8 ± 1 µM. Further, in assay [2] (NIH/3T3, HeLa and A549), the “times less active than FQI1 in cell proliferation assays” value is reported as around 10 times.

Regarding `CCOCCOCCOCCCc1ccc(C2CC(=O)Nc3cc4c(cc32)OCO4)c(OCC)c1` (stereo not drawn) [PEG-FQI], the GI50 in assay [5] (Table 5, read-out: QGY-7703 GI50) is above 10 µM; in assay [5] (Table 8, read-out: QGY-7703 GI50) it was above 10 µM.

For `COc1ccc(C2CC(=O)Nc3ccc(OC)cc32)cc1` (stereo not drawn) [FQI21, 6-methoxy-4-(4-methoxyphenyl)-3,4-dihydroquinolin-2(1H)-one], the figures for the IC50 in assay [2], in assay [3] and in assay [4] were above 200 µM, above 200 µM and 67 ± 9.9 µM, respectively.

Take `COc1ccc(C2CC(=O)Nc3cc4c(cc32)OCO4)cc1` (stereo not drawn) [FQI19, 8-(4-methoxyphenyl)-7,8-dihydro-[1,3]dioxolo[4,5-g]quinolin-6(5H)-one]: the IC50 in assay [2], in assay [3] and in assay [4] was above 200 µM each time.

Consider `CCOc1ccccc1C1CC(=O)Nc2cc3c(cc21)OC(F)(F)O3` (stereo not drawn) [FQI9, 8-(2-ethoxyphenyl)-2,2-difluoro-7,8-dihydro-[1,3]dioxolo[4,5-g]quinolin-6(5H)-one], for which the IC50 in assay [2] was 30 ± 3.5 µM; in assay [3], above 300 µM; in assay [4], 6.6 ± 1.2 µM.

As for `COc1ccccc1C1CC(=O)Nc2cc3c(cc21)OCO3` (stereo not drawn) [FQI12, 8-(2-methoxyphenyl)-7,8-dihydro-[1,3]dioxolo[4,5-g]quinolin-6(5H)-one], the IC50 in assay [1] fell in the range of 3 to 4 µM. In addition, the GI50 in assay [2] (setting [9]) stood at 4 ± 0.8 µM.

As for `CCOc1ccccc1-c1cc(=O)[nH]c2cc3c(cc12)OCO3` [FQI2, 8-(2-ethoxyphenyl)-[1,3]dioxolo[4,5-g]quinolin-6(5H)-one], the IC50 in assay [1] came out at 0.8 µM. In assay [1], the “activity in the LSF luciferase reporter assay relative to comparator” value was “as effective as the (S)-enantiomer”. Further, the “growth of a variety of cancers, in vitro cell assay” value in assay [6] is “inhibit the growth of a variety of cancers”. Also, the GI50 stood at 0.71 ± 0.13 µM in assay [2] (setting [8]), 0.71 ± 0.13 µM in assay [2] (setting [9]), 1.9 ± 0.9 µM in assay [3] and 0.4 ± 0.04 µM in assay [4]. For the same molecule, in assay [2], the “antiproliferative activity relative to comparator” value is recorded as “as active as (S)-FQI1”. The “cellular proliferation of QGY-7703 cells (MTT)” value in assay [7] is listed as “decreased overall cellular proliferation”.

`CCOc1ccccc1[C@H]1CC(=O)Nc2cc3c(cc21)OCO3` [(S)-FQI1]: the IC50 was found to be 0.8 µM in assay [1], 1.1 ± 0.45 µM in assay [2], 3 ± 1.3 µM in assay [3] and 0.3 ± 0.025 µM in assay [4]. Further, the “fold more active than the racemate in the luciferase reporter assay” value in assay [1] (versus racemic FQI1) was “approximately 3 fold”. Moreover, the GI50 in assay [2] (setting [8]) was found to be 1.1 ± 0.41 µM; in assay [2] (setting [9]) it was 1.1 ± 0.4 µM; in assay [3] it was 3 ± 1.3 µM; in assay [4], 0.3 ± 0.03 µM. For the same molecule, the “antiproliferative activity relative to comparator” value in assay [2] was “at least twice as active”.

For the molecule `CCCCOc1ccccc1C1CC(=O)Nc2cc3c(cc21)OCO3` (stereo not drawn) [FQI3, 8-(2-Butoxyphenyl)-7,8-dihydro-[1,3]dioxolo[4,5-g]quinolin-6(5H)-one], the IC50 in assay [1] is 3 to 5 µM. In addition, in assay [2] (setting [9]), the GI50 turned out to be 2.6 ± 0.5 µM.

In the case of `COc1ccccc1C1CC(=O)Nc2cc(OC)c(OC)c(OC)c21` (stereo not drawn) [FQI15, 5,6,7-trimethoxy-4-(2-methoxyphenyl)-3,4-dihydroquinolin-2(1H)-one], the IC50 in assay [2], in assay [3] and in assay [4] was above 200 µM throughout.

Regarding `CCCOc1ccccc1C1CC(=O)Nc2cc3c(cc21)OCO3` (stereo not drawn) [FQI16, 8-(2-propoxyphenyl)-7,8-dihydro-[1,3]dioxolo[4,5-g]quinolin-6(5H)-one], in assay [1], the IC50 lay in the range of 2 to 4 µM. Besides, in assay [2] (setting [9]), the GI50 was 2.3 ± 0.5 µM.

For the molecule `COc1ccc2c(c1)C(c1ccccc1OC)CC(=O)N2` (stereo not drawn) [FQI14, 6-methoxy-4-(2-methoxyphenyl)-3,4-dihydroquinolin-2(1H)-one], the IC50 in assay [3] is above 10000 µM.

As to `CCOc1ccccc1C1CC(=O)Nc2cc(OC)c(OC)c(OC)c21` (stereo not drawn) [FQI11, 4-(2-ethoxyphenyl)-5,6,7-trimethoxy-3,4-dihydroquinolin-2(1H)-one], the IC50 in assay [2], in assay [3] and in assay [4] was above 200 µM throughout.

As for `COc1ccccc1C1CC(=O)Nc2cc3c(cc21)OC(F)(F)O3` (stereo not drawn) [FQI13, 2,2-difluoro-8-(2-methoxyphenyl)-7,8-dihydro-[1,3]dioxolo[4,5-g]quinolin-6(5H)-one], the IC50 is 72 ± 9.8 µM in assay [2], above 300 µM in assay [3] and 8.8 ± 1.4 µM in assay [4].

Values taken from patent publication US10392398B2, “Inhibitors of Late SV40 Factor (LSF) as cancer chemotherapeutics” (TRUSTEES OF BOSTON UNIVERSITY, priority 2010, dated 2019).
